# “And” between values parts separate entries of the source, which are not always exact repeats. Equal values may be shown once. Read-outs that look alike come from different tables or passages of the source.
# Experiment: Short-term stability of vitamin D3 and vitamin D3 palmitate in liquid vitamin formulations at 40° C. (HPLC assay)
# Assay type: physicochemical
# Details: 40° C.; for half-life: liquid vitamin formulation, first order fit of 16 weeks data, read-out: Time in Weeks for 50% Degradation (T50)
# Protocol: In addition to the above, the vitamin formulation contains flavorants, stabilizer of vitamins, and about 1.0% polysorbate 80 as surfactant. As appreciated by the skilled artisan, appropriate overages of vitamins are included in order to assure meeting the label claims. The example composition contains 1.86:1 ratio by weight of glycerine to water. The pH is 5.0 which is adjusted by using an appropriate ratio of ascorbic acid to sodium ascorbate.
# Vitamin D was analyzed by a HPLC assay as described by Matthew G. Sliva, et al., "Reversed-Phase Liquid Chromatographic Determination of Vitamin D in Infant Formulas and Enteral Nutritionals," J Assoc. Off. Anal. Chem., 75, 566, 1992, except that saponification conditions of 70° C. for 40 minutes were employed.
# Stability of vitamins D3 and D3 palmitate were compared in various vitamin formulations containing different amounts of water and glycerin and at different pHs. The other ingredients and method of pH adjustment were as described in Example 1. The results are in Tables 2-5. Each batch number represents a different liquid vitamin formulation. The amount of glycerin varied between 650 and 850 mg/ml, depending upon the amount of water. "Vit" represents vitamin, "Desc." represents description,"Vit D3" represents vitamin D3, and "Vit D3P" or "D3 P" represents vitamin D3 palmitate. Table 1 lists the half-life (T50) values, i.e., time to degrade to 50% of the starting concentration of vitamins D3 and D3 palmitate at 40° C., These T50 values were calculated by fitting the data to first order degradation rate.
smiles,measurement,setting,value
"C=C1CC[C@H](O)C/C1=C/C=C1\CCC[C@]2(C)[C@@H]([C@H](C)CCCC(C)C)CC[C@@H]12 [Vitamin D3, vitamin D3]",half-life,"pH 3.2, pH 3.2, 252 mg/ml water",220 days
same,half-life,"pH 3.2, pH 3.2, 390 mg/ml water",73.5 days
same,half-life,"pH 4.2, pH 4.2, 252 mg/ml water",105 days
same,half-life,"pH 4.2, pH 4.2, 390 mg/ml water",44.8 days
same,half-life,"pH 5, pH 5.0, 252 mg/ml water",117 days
same,half-life,"pH 5, pH 5.0, 320 mg/ml water",86.8 days
same,half-life,"pH 5, pH 5.0, 390 mg/ml water",40.6 days
same,half-life,"pH 5, pH 5.0, 435 mg/ml water",39.9 days
same,half-life,"pH 5.6, pH 5.6, 252 mg/ml water",146 days
same,half-life,"pH 5.6, pH 5.6, 390 mg/ml water",44.1 days
same,Vitamin D content on storage,"pH 3.2, 252 mg/ml water, age 0 weeks, Batch #1 (D3), #2 (D3 P)",787 IU/ml and 789 IU/ml
same,Vitamin D content on storage,"pH 3.2, 252 mg/ml water, age 1 week, Batch #1 (D3), #2 (D3 P)",714 IU/ml and 724 IU/ml
same,Vitamin D content on storage,"pH 3.2, 252 mg/ml water, age 2 weeks, Batch #1 (D3), #2 (D3 P)",718 IU/ml and 691 IU/ml
same,Vitamin D content on storage,"pH 3.2, 252 mg/ml water, age 4 weeks, Batch #1 (D3), #2 (D3 P)",720 IU/ml and 713 IU/ml
same,Vitamin D content on storage,"pH 3.2, 252 mg/ml water, age 6 weeks, Batch #1 (D3), #2 (D3 P)",656 IU/ml and 628 IU/ml
same,Vitamin D content on storage,"pH 3.2, 252 mg/ml water, age 8 weeks, Batch #1 (D3), #2 (D3 P)",658 IU/ml and 634 IU/ml
same,Vitamin D content on storage,"pH 3.2, 252 mg/ml water, age 12 weeks, Batch #1 (D3), #2 (D3 P)",514 IU/ml and 586 IU/ml
same,Vitamin D content on storage,"pH 3.2, 252 mg/ml water, age 16 weeks, Batch #1 (D3), #2 (D3 P)",559 IU/ml and 542 IU/ml
same,Vitamin D content on storage,"pH 3.2, 390 mg/ml water, age 0 weeks, Batch #3 (D3), #4 (D3 P)",445 IU/ml and 447 IU/ml
same,Vitamin D content on storage,"pH 3.2, 390 mg/ml water, age 1 week, Batch #3 (D3), #4 (D3 P)",429 IU/ml
same,Vitamin D content on storage,"pH 3.2, 390 mg/ml water, age 2 weeks, Batch #3 (D3), #4 (D3 P)",392 IU/ml and 399 IU/ml
same,Vitamin D content on storage,"pH 3.2, 390 mg/ml water, age 4 weeks, Batch #3 (D3), #4 (D3 P)",359 IU/ml and 369 IU/ml
same,Vitamin D content on storage,"pH 3.2, 390 mg/ml water, age 8 weeks, Batch #3 (D3), #4 (D3 P)",282 IU/ml and 271 IU/ml
same,Vitamin D content on storage,"pH 3.2, 390 mg/ml water, age 12 weeks, Batch #3 (D3), #4 (D3 P)",207 IU/ml and 211 IU/ml
same,Vitamin D content on storage,"pH 3.2, 390 mg/ml water, age 16 weeks, Batch #3 (D3), #4 (D3 P)",160 IU/ml and 149 IU/ml
same,Vitamin D content on storage,"pH 4.2, 252 mg/ml water, age 0 weeks, Batch #5 (D3), #6 (D3 P)",450 IU/ml
same,Vitamin D content on storage,"pH 4.2, 252 mg/ml water, age 1 week, Batch #5 (D3), #6 (D3 P)",440 IU/ml and 445 IU/ml
same,Vitamin D content on storage,"pH 4.2, 252 mg/ml water, age 2 weeks, Batch #5 (D3), #6 (D3 P)",422 IU/ml and 425 IU/ml
same,Vitamin D content on storage,"pH 4.2, 252 mg/ml water, age 4 weeks, Batch #5 (D3), #6 (D3 P)",364 IU/ml and 371 IU/ml
same,Vitamin D content on storage,"pH 4.2, 252 mg/ml water, age 8 weeks, Batch #5 (D3), #6 (D3 P)",331 IU/ml and 315 IU/ml
same,Vitamin D content on storage,"pH 4.2, 252 mg/ml water, age 12 weeks, Batch #5 (D3), #6 (D3 P)",255 IU/ml and 267 IU/ml
same,Vitamin D content on storage,"pH 4.2, 252 mg/ml water, age 16 weeks, Batch #5 (D3), #6 (D3 P)",198 IU/ml and 224 IU/ml
same,Vitamin D content on storage,"pH 4.2, 390 mg/ml water, age 0 weeks, Batch #7 (D3), #8 (D3 P)",451 IU/ml and 448 IU/ml
same,Vitamin D content on storage,"pH 4.2, 390 mg/ml water, age 1 week, Batch #7 (D3), #8 (D3 P)",420 IU/ml and 418 IU/ml
same,Vitamin D content on storage,"pH 4.2, 390 mg/ml water, age 2 weeks, Batch #7 (D3), #8 (D3 P)",357 IU/ml and 360 IU/ml
same,Vitamin D content on storage,"pH 4.2, 390 mg/ml water, age 4 weeks, Batch #7 (D3), #8 (D3 P)",301 IU/ml and 299 IU/ml
same,Vitamin D content on storage,"pH 4.2, 390 mg/ml water, age 8 weeks, Batch #7 (D3), #8 (D3 P)",181 IU/ml and 178 IU/ml
same,Vitamin D content on storage,"pH 4.2, 390 mg/ml water, age 12 weeks, Batch #7 (D3), #8 (D3 P)",109 IU/ml and 124 IU/ml
same,Vitamin D content on storage,"pH 4.2, 390 mg/ml water, age 16 weeks, Batch #7 (D3), #8 (D3 P)",91.7 IU/ml and 76.1 IU/ml
same,Vitamin D content on storage,"pH 5.0, 252 mg/ml water, age 0 weeks, Batch #9 (D3), #10 (D3 P)",840 IU/ml and 851 IU/ml
same,Vitamin D content on storage,"pH 5.0, 252 mg/ml water, age 1 week, Batch #9 (D3), #10 (D3 P)",791 IU/ml and 793 IU/ml
same,Vitamin D content on storage,"pH 5.0, 252 mg/ml water, age 4 weeks, Batch #9 (D3), #10 (D3 P)",720 IU/ml and 700 IU/ml
same,Vitamin D content on storage,"pH 5.0, 252 mg/ml water, age 8 weeks, Batch #9 (D3), #10 (D3 P)",583 IU/ml and 590 IU/ml
same,Vitamin D content on storage,"pH 5.0, 252 mg/ml water, age 12 weeks, Batch #9 (D3), #10 (D3 P)",478 IU/ml and 482 IU/ml
same,Vitamin D content on storage,"pH 5.0, 252 mg/ml water, age 16 weeks, Batch #9 (D3), #10 (D3 P)",460 IU/ml and 430 IU/ml
same,Vitamin D content on storage,"pH 5.0, 390 mg/ml water (so in the source), age 0 weeks, Batch #11 (D3), #12 (D3 P)",454 IU/ml and 449 IU/ml
same,Vitamin D content on storage,"pH 5.0, 390 mg/ml water (so in the source), age 1 week, Batch #11 (D3), #12 (D3 P)",432 IU/ml and 423 IU/ml
same,Vitamin D content on storage,"pH 5.0, 390 mg/ml water (so in the source), age 2 weeks, Batch #11 (D3), #12 (D3 P)",424 IU/ml and 426 IU/ml
same,Vitamin D content on storage,"pH 5.0, 390 mg/ml water (so in the source), age 4 weeks, Batch #11 (D3), #12 (D3 P)",377 IU/ml and 371 IU/ml
same,Vitamin D content on storage,"pH 5.0, 390 mg/ml water (so in the source), age 8 weeks, Batch #11 (D3), #12 (D3 P)",291 IU/ml and 281 IU/ml
same,Vitamin D content on storage,"pH 5.0, 390 mg/ml water (so in the source), age 12 weeks, Batch #11 (D3), #12 (D3 P)",230 IU/ml and 237 IU/ml
same,Vitamin D content on storage,"pH 5.0, 390 mg/ml water (so in the source), age 16 weeks, Batch #11 (D3), #12 (D3 P)",196 IU/ml and 182 IU/ml
same,Vitamin D content on storage,"pH 5.0, 390 mg/ml water, age 0 weeks, Batch #13 (D3), #14 (D3 P)",453 IU/ml and 452 IU/ml
same,Vitamin D content on storage,"pH 5.0, 390 mg/ml water, age 1 week, Batch #13 (D3), #14 (D3 P)",413 IU/ml and 410 IU/ml
same,Vitamin D content on storage,"pH 5.0, 390 mg/ml water, age 2 weeks, Batch #13 (D3), #14 (D3 P)",363 IU/ml and 356 IU/ml
same,Vitamin D content on storage,"pH 5.0, 390 mg/ml water, age 4 weeks, Batch #13 (D3), #14 (D3 P)",298 IU/ml and 305 IU/ml
same,Vitamin D content on storage,"pH 5.0, 390 mg/ml water, age 8 weeks, Batch #13 (D3), #14 (D3 P)",166 IU/ml and 168 IU/ml
same,Vitamin D content on storage,"pH 5.0, 435 mg/ml water, age 0 weeks, Batch #15 (D3), #16 (D3 P)",450 IU/ml and 453 IU/ml
same,Vitamin D content on storage,"pH 5.0, 435 mg/ml water, age 1 week, Batch #15 (D3), #16 (D3 P)",400 IU/ml and 426 IU/ml
same,Vitamin D content on storage,"pH 5.0, 435 mg/ml water, age 2 weeks, Batch #15 (D3), #16 (D3 P)",370 IU/ml
same,Vitamin D content on storage,"pH 5.0, 435 mg/ml water, age 4 weeks, Batch #15 (D3), #16 (D3 P)",285 IU/ml and 291 IU/ml
same,Vitamin D content on storage,"pH 5.0, 435 mg/ml water, age 8 weeks, Batch #15 (D3), #16 (D3 P)",187 IU/ml
